The results in this text go back to BindingDB's records for doi:10.1021/jm060199b (Abbott Laboratories, 2006).

Molecules are shown by their SMILES.

The target of the test is Mitogen-activated protein kinase 8 (Homo sapiens, UniProt P45983). Description: ATF-2 Phosphorylation Assay.
Sequence of Mitogen-activated protein kinase 8 (P45983 whole entry): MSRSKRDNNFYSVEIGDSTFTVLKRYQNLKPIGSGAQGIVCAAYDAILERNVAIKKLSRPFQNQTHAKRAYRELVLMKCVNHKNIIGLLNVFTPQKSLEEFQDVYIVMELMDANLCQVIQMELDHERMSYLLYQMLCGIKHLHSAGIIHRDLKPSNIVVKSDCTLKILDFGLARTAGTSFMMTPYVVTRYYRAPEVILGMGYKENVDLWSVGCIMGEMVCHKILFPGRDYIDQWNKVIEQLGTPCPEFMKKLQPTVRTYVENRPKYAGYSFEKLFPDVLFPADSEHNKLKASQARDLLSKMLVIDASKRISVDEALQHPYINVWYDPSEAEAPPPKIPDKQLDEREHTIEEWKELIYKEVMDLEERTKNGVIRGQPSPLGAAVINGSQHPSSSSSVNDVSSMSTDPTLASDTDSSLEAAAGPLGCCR

As a reminder, the IC50 is the midpoint of a concentration-inhibition curve. Regarding `CCOc1cccc(NC(C)=O)n1` [N-(6-ethoxypyridin-2-yl)acetamide], the half-maximal inhibitory concentration (IC50) was over 10 µM.
